Reference: ChEMBL document CHEMBL4402510, “Caprazamycins: Promising lead structures acting on a novel antibacterial target MraY” (Eur J Med Chem, 2019)
Converted amounts (≈) assume the structure as drawn.

What was measured:
[1] = tested on: Bacillus subtilis; experiment: Antibacterial activity against Bacillus subtilis PCI 219; type: functional
[2] = tested on: Mycolicibacterium phlei; experiment: Antibacterial activity against Mycobacterium phlei; type: functional
[3] = Antibacterial activity against Mycobacterium avium subsp. avium ATCC 25291; type: functional
[4] = tested on: Mycobacterium avium subsp. paratuberculosis; experiment: Antibacterial activity against Mycobacterium avium subsp. paratuberculosis ATCC 43015; type: functional
[5] = tested on: Mycolicibacterium smegmatis; experiment: Antibacterial activity against Mycobacterium smegmatis ATCC 607; type: functional
[6] = tested on: Mycobacterium tuberculosis; experiment: Antibacterial activity against Mycobacterium tuberculosis Kurono; type: functional
[7] = tested on: Mycobacterium tuberculosis; experiment: Antibacterial activity against Mycobacterium tuberculosis H37Rv; type: functional
[8] = tested on: Streptococcus pneumoniae; experiment: Antibacterial activity against Streptococcus pneumoniae PCI 602; type: functional
[9] = tested on: Staphylococcus aureus; experiment: Antibacterial activity against methicillin resistant Staphylococcus aureus MS16526; type: functional
[10] = tested on: Escherichia coli; experiment: Antibacterial activity against Escherichia coli K-12; type: functional
[11] = tested on: Staphylococcus aureus; experiment: Antibacterial activity against methicillin resistant Staphylococcus aureus No. 5; type: functional
[12] = tested on: Mycolicibacterium vaccae; experiment: Antibacterial activity against Mycobacterium vaccae ATCC 15483; type: functional
[13] = tested on: Mycobacterium tuberculosis; experiment: Antibacterial activity against Mycobacterium tuberculosis JCM 6384; type: functional
[14] = tested on: Staphylococcus aureus; experiment: Antibacterial activity against Staphylococcus aureus FDA 209P; type: functional
[15] = biological target: T1, Phospho-N-acetylmuramoyl-pentapeptide-transferase (Bacillus subtilis (strain 168), UniProt Q03521); experiment: Inhibition of MraY in Bacillus subtilis
T1 sequence (Q03521 whole entry): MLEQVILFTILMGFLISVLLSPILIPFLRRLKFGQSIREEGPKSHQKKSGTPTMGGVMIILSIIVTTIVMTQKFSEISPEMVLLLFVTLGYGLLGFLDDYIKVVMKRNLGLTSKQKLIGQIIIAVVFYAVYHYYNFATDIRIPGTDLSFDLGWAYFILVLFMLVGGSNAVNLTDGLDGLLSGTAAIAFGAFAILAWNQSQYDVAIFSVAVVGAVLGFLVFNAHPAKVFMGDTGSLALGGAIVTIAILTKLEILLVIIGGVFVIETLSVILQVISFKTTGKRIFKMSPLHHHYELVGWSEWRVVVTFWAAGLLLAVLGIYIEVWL

[16] = biological target: T2, Phospho-N-acetylmuramoyl-pentapeptide-transferase (Aquifex aeolicus (strain VF5), UniProt O66465); experiment: Inhibition of MraY in Aquifex aeolicus
T2 sequence (O66465 whole entry): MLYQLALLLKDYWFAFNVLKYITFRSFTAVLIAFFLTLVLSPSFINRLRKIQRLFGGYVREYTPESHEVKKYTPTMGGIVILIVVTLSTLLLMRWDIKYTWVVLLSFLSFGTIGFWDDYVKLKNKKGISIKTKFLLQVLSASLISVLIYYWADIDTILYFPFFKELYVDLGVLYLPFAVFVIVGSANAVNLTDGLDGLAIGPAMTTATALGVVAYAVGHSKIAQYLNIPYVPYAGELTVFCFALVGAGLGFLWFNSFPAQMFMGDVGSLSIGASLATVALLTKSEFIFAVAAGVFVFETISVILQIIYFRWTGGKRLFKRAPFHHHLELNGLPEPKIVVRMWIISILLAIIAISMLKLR

SMILES | MIC [1] [µg/mL] | MIC [2] [µg/mL] | MIC [3] [µg/mL] | MIC [4] [µg/mL] | MIC [5] [µg/mL] | MIC [6] [µg/mL] | MIC [7] [µg/mL] | MIC [8] [µg/mL] | MIC [9] [µg/mL] | MIC [10] [µg/mL] | MIC [11] [µg/mL] | MIC [12] [µg/mL] | MIC [13] [µg/mL] | MIC [14] [µg/mL] | IC50 [15] [µM] | IC50 [16] [µM]
CCCCCCCCCCNC(=O)C1=CCN(C)[C@@H]([C@H](O[C@@H]2O[C@H](CN)[C@@H](O)[C@H]2O)[C@H]2O[C@@H](n3ccc(=O)[nH]c3=O)[C@H](O)[C@@H]2O)C(=O)N1C | > 100 | 25 (≈ 35.9 µM) | 0.39 (≈ 0.56 µM) | 6.25 (≈ 8.97 µM) | 6.25 (≈ 8.97 µM) | 1.56 (≈ 2.24 µM) | 1.56 (≈ 2.24 µM) | > 100 | > 100 | > 100 | > 100 | 50 (≈ 71.8 µM) | 0.78 (≈ 1.12 µM) | 0.78 (≈ 1.12 µM) | – | –
CCCCCNC(=O)C1=CCN(C)[C@@H]([C@H](O[C@@H]2O[C@H](CN)[C@@H](O)[C@H]2O)[C@H]2O[C@@H](n3ccc(=O)[nH]c3=O)[C@H](O)[C@@H]2O)C(=O)N1C | > 100 | > 100 | 100 (≈ 160 µM) | 100 (≈ 160 µM) | 100 (≈ 160 µM) | 6.25 (≈ 9.97 µM) | 12.5 (≈ 19.9 µM) | > 100 | > 100 | > 100 | > 100 | > 100 | 100 (≈ 160 µM) | 25 (≈ 39.9 µM) | – | –
CCCCCCCNC(=O)C1=CCN(C)[C@@H]([C@H](O[C@@H]2O[C@H](CN)[C@@H](O)[C@H]2O)[C@H]2O[C@@H](n3ccc(=O)[nH]c3=O)[C@H](O)[C@@H]2O)C(=O)N1C | > 100 | > 100 | 25 (≈ 38.2 µM) | 25 (≈ 38.2 µM) | 25 (≈ 38.2 µM) | 1.56 (≈ 2.38 µM) | 3.13 (≈ 4.78 µM) | > 100 | > 100 | > 100 | > 100 | > 100 | 50 (≈ 76.4 µM) | 6.25 (≈ 9.55 µM) | – | –
CCCCCCCCCCCCCCCCCCNC(=O)C1=CCN(C)[C@@H]([C@H](O[C@@H]2O[C@H](CN)[C@@H](O)[C@H]2O)[C@H]2O[C@@H](n3ccc(=O)[nH]c3=O)[C@H](O)[C@@H]2O)C(=O)N1C | < 0.2 | 3.13 (≈ 3.87 µM) | 0.78 (≈ 0.964 µM) | 0.39 (≈ 0.482 µM) | 6.25 (≈ 7.73 µM) | 1.56 (≈ 1.93 µM) | 1.56 (≈ 1.93 µM) | > 100 | 6.25 (≈ 7.73 µM) | > 100 | 6.25 (≈ 7.73 µM) | 3.13 (≈ 3.87 µM) | 0.78 (≈ 0.964 µM) | 6.25 (≈ 7.73 µM) | – | –
NC[C@H]1O[C@@H](O[C@@H](c2cn(CCCOc3ccc(C(=O)c4ccccc4)cc3)nn2)[C@H]2O[C@@H](n3ccc(=O)[nH]c3=O)[C@H](O)[C@@H]2O)[C@H](O)[C@@H]1O | – | – | – | – | – | – | – | – | – | – | – | – | – | – | 100 | 125
CCCCc1ccc(NC(=O)C2=CCN[C@@H]([C@H](O[C@@H]3O[C@H](CN)[C@@H](O)[C@H]3O)[C@H]3O[C@@H](n4ccc(=O)[nH]c4=O)[C@H](O)[C@@H]3O)C(=O)N2C)cc1 | 3.13 (≈ 4.64 µM) | 12.5 (≈ 18.5 µM) | 1.56 (≈ 2.31 µM) | 0.39 (≈ 0.578 µM) | 6.25 (≈ 9.26 µM) | 1.56 (≈ 2.31 µM) | 1.56 (≈ 2.31 µM) | 50 (≈ 74.1 µM) | 100 (≈ 148 µM) | > 100 | 100 (≈ 148 µM) | 50 (≈ 74.1 µM) | 0.2 (≈ 0.296 µM) | 25 (≈ 37.1 µM) | – | –
CCCCCCCCCCCCCNC(=O)C1=CCN(C)[C@@H]([C@H](O[C@@H]2O[C@H](CN)[C@@H](O)[C@H]2O)[C@H]2O[C@@H](n3ccc(=O)[nH]c3=O)[C@H](O)[C@@H]2O)C(=O)N1C | 0.39 (≈ 0.528 µM) | 0.78 (≈ 1.06 µM) | 3.13 (≈ 4.24 µM) | 0.1 (≈ 0.135 µM) | 0.39 (≈ 0.528 µM) | 1.56 (≈ 2.11 µM) | 1.56 (≈ 2.11 µM) | 6.25 (≈ 8.46 µM) | 3.13 (≈ 4.24 µM) | 100 (≈ 135 µM) | 6.25 (≈ 8.46 µM) | 0.78 (≈ 1.06 µM) | 0.2 (≈ 0.271 µM) | 3.13 (≈ 4.24 µM) | – | –
CN1C(=O)[C@H]([C@H](O[C@@H]2O[C@H](CN)[C@@H](O)[C@H]2O)[C@H]2O[C@@H](n3ccc(=O)[nH]c3=O)[C@H](O)[C@@H]2O)N(C)CC=C1C(=O)Nc1ccc(C2CCCCC2)cc1 | 100 (≈ 140 µM) | 12.5 (≈ 17.5 µM) | 1.56 (≈ 2.18 µM) | 0.78 (≈ 1.09 µM) | 1.56 (≈ 2.18 µM) | 1.56 (≈ 2.18 µM) | 1.56 (≈ 2.18 µM) | 12.5 (≈ 17.5 µM) | 0.39 (≈ 0.546 µM) | 6.25 (≈ 8.74 µM) | 100 (≈ 140 µM) | 25 (≈ 35 µM) | 0.39 (≈ 0.546 µM) | 100 (≈ 140 µM) | – | –
CCCCCCCCCCCCCCCCCCCNC(=O)C1=CCN(C)[C@@H]([C@H](O[C@@H]2O[C@H](CN)[C@@H](O)[C@H]2O)[C@H]2O[C@@H](n3ccc(=O)[nH]c3=O)[C@H](O)[C@@H]2O)C(=O)N1C | 0.78 (≈ 0.948 µM) | 25 (≈ 30.4 µM) | 1.56 (≈ 1.9 µM) | 0.78 (≈ 0.948 µM) | 12.5 (≈ 15.2 µM) | 1.56 (≈ 1.9 µM) | 1.56 (≈ 1.9 µM) | > 100 | 6.25 (≈ 7.59 µM) | > 100 | 6.25 (≈ 7.59 µM) | 3.13 (≈ 3.8 µM) | 0.78 (≈ 0.948 µM) | 6.25 (≈ 7.59 µM) | – | –
